Tests used:
E. coli [1] = assay: Dry sample testing on dye-coated towel; parameters: species or system Escherichia coli; conditions: dry colony rubbed onto pre-moistened dye coated SCOTT towel
Experimental: A test using the Reichardt's dye coated paper towel with a “dry” bacteria sample, not in solution was carried out. A dry sample of a colony of E. coli bacteria lifted off an agar petri dish containing a series of growing cultures was used. This dry sample was then rubbed onto a pre-moistened dye coated SCOTT® paper towel. The area where the colony was placed and rubbed turned colorless within 1-5 seconds. This is a similar to how a wet wipe towel would be used and it performed well.

E. coli [2] = assay: Towel coated with Reichardt's dye and TMB exposed to bacteria; parameters: species or system Escherichia coli; conditions: E. coli suspension drop-wise
Bleach indicator test = type: physicochemical; conditions: mixture with TMB coated on SCOTT towel
E. coli [3] = assay: De-colorization of Reichardt's dye-coated paper by bacteria solutions; parameters: species or system Escherichia coli; conditions: paper brush-coated with 80 mg/10 mL acetonitrile; 100 μL of 10^7 to 10^4 CFU/mL
Experimental: This experiment tested the ability of a surface coating of Reichardt's dye to respond to bacterial contamination. […] To this paper was added 100 μL aliquots of 10^7, 10^6, 10^5, and 10^4 CFU/mL E. coli or S. aureus solutions (8B). Water was used as a negative control. […] It was later determined that while both bacteria solutions were indeed at 10^7 CFU/mL concentrations, the actual concentration of the S. aureus solution was 7×10^7 CFU/mL compared to 1×10^7 CFU/mL for the E. coli solution.

Influenza A = assay: Virus detection with Reichardt's dye-coated stickers
P. aeruginosa = assay: Quantification of bacterial contamination by Delta E (hand-held spectrophotometer); parameters: species or system Psuedomonas aeruginosa; conditions: label substrate, log CFU/ml (actual) 6
From the text: More specifically, indicator strips coated with Reichardt's dye were exposed with decreasing amounts of the bacteria aliquots. A hand-held spectrophotometer was used to after application of each aliquot to determine “Delta E” value (calculated using L*, A*, and B* values) for each CFU/mL concentration. The results are set forth below in Table 4 (for paper) and Table 5 (for label). From the above, standard detection curves were generated as shown in FIGS. 5-7 for S. aureus, P. aeruginosa, and E. coli, respectively. As shown, each type of bacteria changed the color of the dye-treated substrate in a slightly different way, creating a unique standard curve. Thereafter, drops of unknown bacteria concentrations were placed on the stickers and a spectrophotometer was used to measure the “Delta E” of the resulting color. The numerical values obtained for each unknown sample set forth below in Tables 6-7. […] Although a few of the results were not completely accurate, the present inventors believe that improving the uniformity of the coating would further enhance detection accuracy.

bacteria solution = assay: Lateral flow device; conditions: 5 weight percent dye in iso-propanol striped on nitrocellulose HF75
Experimental: Millipore nitrocellulose HF75 membrane (from Millipore Corporation of Billerica, Mass., USA) was laminated onto a plastic supporting card (from Millipore Corp.) having a length of approximately 30 centimeters. On both the detection zone and control zone, a solution of 5 weight percent Reichardt's dye in iso-propanol was hand striped. The membrane was dried in a laboratory oven for 1 hour at a temperature of 37.5° C. After the membrane card was taken from the oven, a cellulosic wicking pad (Cat# CFSP203000 from Millipore Corp.) was attached to one end of the membrane closer to the control zone. The other end of the card, used to attach the sample pad, was cut off. The card was then sliced into 4 mm strips to form half sticks.
Once the half sticks were prepared, a bacteria solution was applied to the end of the detection membrane. […] The control line color remained the same through out the test.

vaccinia = conditions: 50-microliter droplet, 3 minutes
[4] = Reichardt's dye indicator with bacterial cell-wall components; conditions: 160 mg in 10 mL acetonitrile
[5] = UV-Vis absorption spectra in different solvents; type: physicochemical
From the text: Reichardt's dye was used without further purification. […] Solvents used were obtained from Aldrich Chemical and were HPLC grade. A Shimadzu UV-1601 UV-Visible Spectrophotometer (Shimadzu Corporation) was used to measure the longest wavelength peak absorption of the dyes in the range of 400 to 800 nm, dissolved in three different solvents, contained in quartz curvettes. The following table contains the results of the testing with the solvents on the left side and dyes across the top.

Rhinovirus = assay: Virus detection with Reichardt's dye
measles = assay: Virus detection with Reichardt's dye-coated stickers
[6] = tested on: bacteria in aged chicken juice; assay: Dye solution dropped onto aged chicken juice on SCOTT paper towel (comparative examples); conditions: 100 mg suspended in 10 ml acetonitrile, dropped onto aged chicken juice on SCOTT paper towel
S. aureus [7] = assay: Solvent choice for Reichardt's dye coatings on SCOTT towels; parameters: species or system Staphylococcus aureus; conditions: coated SCOTT towel, 100 μl aliquots of S. aureus
Experimental: Solutions of Reichardt's dye in acetonitrile, isopropanol, and xylenes were prepared and the solutions were used to coat SCOTT® kitchen rolls towels and allowed to air-dry (FIGS. 12A and 12D).

S. aureus [8] = assay: Titration of substrate-bound microorganism with Reichardt's dye solution; parameters: species or system Staphylococcus aureus
Experimental: On a SCOTT® paper towel was placed 100 μl each of serially diluted S. aureus bacterial suspensions. […] This was repeated on each spot corresponding to where different concentrations of bacteria were placed.

In the case of `[O-]c1c(-c2ccccc2)cc(-[n+]2c(-c3ccccc3)cc(-c3ccccc3)cc2-c2ccccc2)cc1-c1ccccc1` [Reichardt's dye, 2,6-diphenyl-4-(2,4,6-triphenylpyridinio)-phenolate], the “time to turn colorless” value (E. coli [1]) was 1 to 5 s, the “time to decolorize to a white spot” value (E. coli [2]) was “less than 10 seconds” and the “response of Reichardt's dye to dilute bleach” value (Bleach indicator test) was “de-colorizing”. The de-colorization time (E. coli [3]) was < 1 min, the “de-colorization of sticker by undiluted virus” value (“de-colorization of sticker” for short) (Influenza A) was “less than that observed for the other viruses” and the “Delta E, unknown sample” value (P. aeruginosa) was 4.1002. The “color change in detection zone of lateral flow half stick” value (bacteria solution) was “a color change was noted in the detection zone”, the “de-colorization of sticker” value (vaccinia) was “less than that observed for the other viruses” and the “de-colorization by the other cell-wall compounds (LPS, detoxified LPS, lipoteichoic acid)” value [4] was “eventual de-colorization”. For the same compound, the “de-colorization by muramic acid” value ([4]; both experimental set-ups) was “near instantaneous de-colorization”, the “perceived color of solution” value ([5]; Acetone) was “(bluish-green)” and the “perceived color of solution” value ([5]; Acetonitrile) was “(Blue)”. For the same compound, the “perceived color of solution” value ([5]; Methanol) was “(red)”, the “dye added until the color persisted” value (Rhinovirus; 80 milligrams/10 milliliters acetonitrile with or without TWEEN 80, 100-microliter drop of undiluted virus on SCOTT towel) was “approximately 9 drops” and the “lowest ten-fold dilution at which stickers changed color” value (Rhinovirus; virus diluted serially in saline, 50-microliter aliquots, 3 minutes) was 10^−6. The “de-colorization of sticker” value (measles) was “less than that observed for the other viruses”, the “color change on aged chicken juice (control)” value [6] was “immediately decolorized” and the “color change of coating made from acetonitrile solution” value (S. aureus [7]) was “rapid de-colorization”. The “color change of coatings made from isopropanol and xylenes solutions” value (S. aureus [7]) was “No visible color change”, the “Amount of Dye Required for Persistent Color” value (S. aureus [8]; 160 mg in 10 ml acetonitrile, 10 μl aliquots, 100 μl of 10^7 CFU/ml on towel) was 90 µL and the “de-colorization time of dye drops” value (S. aureus [8]; 10 μl drops of 40 mg/10 ml acetonitrile on 100 μl serially diluted suspensions on SCOTT towel) was < 1 s.

From patent publication US7399608B2, “Microbial detection and quantification” (Kimberly-Clark Worldwide, Inc., priority 2003, dated 2008)
